Values of other authors as cited in patent US11925695B2, “Methods for making ultrasound contrast agents” (Lantheus Medical Imaging, Inc., priority 2016, dated 2024).
Where two headings read alike, the source gives them in different places.

Assays:
[1] = not given; remark: listed apart in the source

CC(O)CO (centres unmarked) [Propylene glycol, propylene glycol]
viscosity (at 25° C.): 42 cps

O [Water]
viscosity (at 15° C.): approximately 1.14 cps

OCC(O)CO [Glycerol, glycerol]
viscosity (at 15° C.): 2200 cps

CCCCCCCCCCCCCCCC(=O)OC[C@H](COP(=O)(O)OCCN)OC(=O)CCCCCCCCCCCCCCC [DPPE, 1,2-dipalmitoyl-sn-glycero-3-phosphatidylethanolamine]
pKa for the amine of the ethanolamine [1]: 9.3
pKa for the hydroxyl of the phosphate [1]: 1.9
